Results published in patent US20100076072A1, “COMPOSITIONS AND METHODS OF VITAMIN E ADMINISTRATION” (NORTHWESTERN UNIVERSITY, priority 2008, published 2010).

What was measured:
[1] = tested on: OVA-challenged mice (experimental asthma); experiment: OVA experimental asthma: leukocyte infiltration into bronchoalveolar lavage (BAL); format: in vivo, mouse
Experimental: Reagents. Ethoxylated castor oil was composed of polyethoxylated castor oil (PEG35), 20% ethanol, and 1% benzyl alcohol. […] The purified tocopherols were diluted in ethoxylated castor oil to indicated concentrations for the in vivo studies. The purified tocopherols were diluted in DMSO (0.2%) for the in vitro studies. OVA administration. BALB/c female mice were maintained on chow diet. The mice were sensitized by intraperitoneal injection (200 μl) of OVA grade V (10 μg)/alum or saline/alum on days 0 and 7 (SEE FIG. 1). On days 13-20, these mice received daily subcutaneous injections (50 μl) of 2 μg natural tocopherol/ethoxylated castor oil or ethoxylated castor oil alone. This daily 2 μg of natural tocopherol is equivalent to the amount of tocopherol that mice consume from diets (4 g diet consumed/day×500 mg α-tocopherol/kg diet) that are commonly used to elevate tissue tocopherols in mice. The mice recieved 2 μg d-α-tocopherol, 2 μg d-γ-tocopherol, 2 μg d-α-tocopherol plus 2 μg d-γ-tocopherol or the vehicle exthoxylated castor oil. […] During the OVA responses in mice, tocopherol radicals are recycled by endogenously synthesized ascorbic acid. On days 16, 18, and 20, the mice were challenged with intranasal OVA fraction VI (150 μg) in saline or saline alone. On day 21, the mice were analyzed for airway responsiveness followed by collection of tissues.
(§1) Tissue collection. After airway function analysis, mice were weighed, sacrificed and the lungs flushed twice with 0.8 ml PBS. The cells in this bronchoalveolar lavage (BAL) were cytospun onto slides, DiffQuik (Baxter) stained, and differential cell counts were performed. BAL supernatants were snap frozen and stored at −80° C. for cytokine analysis. Lungs were perfused free of blood and one quarter of the lung was tied off, collected, weighed, snap frozen, and stored at −80° C. for tocopherol analysis and PGE2 analysis. One quarter of the lung was collected and placed in RNA later for analysis of mRNA for eotaxin expression. The other half of the lung was injected with 40% freezing compound, collected and stored at −80° C. for tissue sections and histological staining Frozen sections were prepared rather than paraffin sections since the anti-mouse VCAM-1 antibodies only bind to VCAM-1 in frozen sections.
(§2) Mice were sensitized with intraperitoneal injection of OVA grade V (10 μg)/alum or saline/alum on days 0 and 7 (SEE FIG. 2). On days 13-20, these mice received daily subcutaneous injections (500) of 2 μg natural tocopherol/ethoxylated castor oil (33) or ethoxylated castor oil alone. This daily 2 μg of natural tocopherol is equivalent to the amount of tocopherol that mice consume from diets (4 g diet consumed/day×500 mg a tocopherol/kg diet) that are commonly used to elevate tissue tocopherols in mice. On days 16, 18, and 20 the mice were challenged with intranasal OVA fraction VI (150 μg) in saline or saline alone. On day 21, the mice were analyzed for airway responsiveness and then tissues were collected. Lung responsiveness was determined using methacholine and whole-body plethysmography as previously described. This method of measuring lung function has the advantage of analysis of larger numbers of animals, as compared to the few animals that can be analyzed using invasive measures of lung function. The whole-body plethysmography correlates well with airway function when performed under continuous flow conditions. This measurement under continuous flow is critical as it avoids the complication of airway conditioning that occurs if these measurements are incorrectly made under closed conditions. After airway analysis, mice were sacrificed and tissues collected.

[2] = tested on: OVA-challenged mice (experimental asthma); experiment: OVA experimental asthma: lung tissue eosinophils (anti-major basic protein immunolabeling); format: in vivo, mouse; settings: daily s.c. 2 μg tocopherol days 13-20, day 21
[3] = tested on: OVA-challenged mice (experimental asthma); experiment: Airway hyperresponsiveness to methacholine, whole-body plethysmography (Penh); format: in vivo, mouse
Experimental: Airway Hyperresponsiveness. Lung responsiveness was determined using methacholine as previously described. On day 21, the mice were analyzed for airway responsiveness by whole body plethysmology. The whole-body plethysmography on conscious, unrestrained mice was performed under continuous airflow conditions (Buxco, Troy, N.Y.). Continuous airflow was used to avoid the influence of conditioning on airway functions, causing aberrant measurements. Enhanced pause (Penh) values were calculated from the flow-derived whole-body plethysmography measurements done with continuous air flow. Penh is a unitless indicator of changes in airway resistance and correlates well with specific airway resistance. Baseline readings were averaged for 5 minutes. Saline or methacholine was nebulized into the airflow for 2-minute periods and the average Penh value calculated for this and the subsequent 8 minutes.
as §2, with “This measurement under continuous flow is critical as it avoids the complication of airway conditioning that occurs if these measurements are incorrectly made under closed conditions. After airway analysis, mice were sacrificed and tissues collected.” left out

[4] = Body and lung weights on day 21; format: in vivo, mouse; settings: mice, day 21, daily s.c. tocopherol days 13-20
Experimental: as §1
Body weight and tocopherol levels in these mice were examined. […] Consistent with this, the body weight and lung weights of the mice studied during the development of embodiments of the present invention were unaltered by the α-tocopherol or γ-tocopherol treatments (SEE FIG. 3). Lungs were perfused to remove the blood, homogenized in ethanol and extracted with hexane. Tocopherol concentrations were determined by HPLC with an electrochemical detector. The lung tissue and plasma levels of tocopherols were elevated (SEE FIG. 4). […] The level of γ-tocopherol in the lung tissue of γ-tocopherol-treated mice was 10 fold lower than lung tissue α-tocopherol in the α-tocopherol-treated mice. This 10 fold difference in α-tocopherol and γ-tocopherol levels in the lung tissues may be caused preferential transfer of α-tocopherol in the liver by a TTP (20, 24), although the present invention is not limited to any particular mechanism of action and an understanding of the mechanism of action is not necessary to practice the present invention. […] Administration of tocopherols also had no effect on the low levels of δ-tocopherol in the lung (SEE FIG. 4A).

[5] = Tocopherol levels in lung tissue and plasma (HPLC, electrochemical detector); format: in vivo, mouse
Experimental: Body weight and tocopherol levels in these mice were examined. […] Lungs were perfused to remove the blood, homogenized in ethanol and extracted with hexane. Tocopherol concentrations were determined by HPLC with an electrochemical detector.

[6] = tested on: VCAM-1-dependent spleen cell migration across mHEVa endothelial cells; experiment: In vitro Transwell migration assay; format: cell-based, mouse
Experimental: In vitro Transwell migration assay. mHEVa cells were grown to confluence on Transwells with 12 μm pores (Costar Cambridge, Mass.). The mHEVc cell monolayers block nonspecific accumulation of red blood cells in the lower transwell chamber and block FITC-albumin diffusion. Spleen cell migration is stimulated by mHEV cell secretion of the chemokine MCP-1. The number of lymphocytes that migrate is linear from 0-24 hrs followed by a plateau. Spleen cells that migrate are greater than 95% lymphocytes and the percentage of cells that migrate is consistent with other in vitro models with endothelial cell lines or cytokine-activated microvascular endothelial cells.
In this transendothelial migration assay used, the migrated spleen cells are >95% lymphocytes and the B cells and T cells migrate in response to MCP-1. […]

PKCα = molecular target: T1, PKCα (Mus musculus, UniProt P20444); experiment: VCAM-1 activation of endothelial cell PKCα (PKCα-Thr638 phosphorylation, western blot); format: cell-based; settings: overnight 80 μM α-tocopherol / 2 μM γ-tocopherol; anti-VCAM-1 stimulation 10 minutes
T1 construct: endogenous in cells; host or cells: endothelial cells (mHEVa named)
Experimental: Endothelial cells were pretreated overnight with physiological concentrations of tocopherols (80 μM α-tocopherol and/or 2 μM γ-tocopherol). Endothelial cell VCAM-1 was stimulated with anti-VCAM-1 and a secondary antibody for 10 minutes. Phosphorylation of PKCα-Thr^638 was examined by western blot, developed using an ECL kit, and analyzed by densitometry as in the methods section. These concentrations of α-tocopherol (80 μM) and γ-tocopherol (2 μM) were optimal for their inhibition or enhancement, respectively, of VCAM-1 activation of PKCα (data not shown). Shown are representative blots and data from 5 experiments. *, p<0.05 compared to nonstimulated groups. **, p<0.05 compared to nonstimulated groups and p<0.07 compared to DMSO-treated/anti-VCAM-stimulated group.

arthritis = experiment: Arthritis
[7] = in vivo; cited from earlier work
[8] = OVA-challenged BALB/c mice, daily s.c. 2 μg tocopherol days 13-20, day 21, vs OVA-challenged vehicle
[9] = OVA-challenged mice, co-treatment with α-tocopherol

Cc1c(O)cc2c(c1C)O[C@](C)(CCC[C@H](C)CCC[C@H](C)CCCC(C)C)CC2 [γ-tocopherol, d-γ-tocopherol]
OVA-stimulated infiltration of eosinophils into the BAL [1, 8]: significantly increased | OVA-stimulated infiltration of lymphocytes into the BAL [1, 8]: significantly increased | OVA-stimulated infiltration of monocytes into the BAL [1, 8]: significantly increased | OVA-stimulated infiltration of neutrophils into the BAL [1, 8]: significantly increased | Effect on the benefit of α-tocopherol (BAL leukocyte infiltration) [1, 9]: blocked the benefit of α-tocopherol | Eosinophils in the lung tissue [2]: elevated | Airway hyperresponsiveness (AHR), enhanced pause (Penh) ([3]; OVA-challenged BALB/c mice, methacholine dose curve, day 21): elevated | Effect on α-tocopherol inhibition of AHR [3, 9]: antagonized the inhibition by α-tocopherol | Body weight [4]: unaltered | Lung weights [4]: unaltered | Lung tissue γ-tocopherol in γ-tocopherol-treated mice relative to lung tissue α-tocopherol in α-tocopherol-treated mice ([5]; day 21): 10 fold lower | Lung tissue level of the other tocopherol (α vs γ) ([5]; mice, day 21): did not alter | Lung tissue level of the administered tocopherol ([5]; mice, day 21, daily s.c. 2 μg tocopherol days 13-20): elevated levels | Effect on α-tocopherol inhibition of spleen cell migration ([6]; 5 μM γ-tocopherol with α-tocopherol (80 μM)-treated cells): ablated | Lymphocyte migration after pretreatment of endothelial cells ([6]; endothelial cells pretreated, washed five times, transwell assay): elevated lymphocyte migration | Migration after pretreatment of leukocytes with tocopherol and washing ([6]; leukocytes pretreated, washed): no effect on migration | Lymphocyte migration in transwell migration assay ([6]; tocopherol left in culture, 24 hours after addition of spleen cells, 80 μM α / 5 μM γ): significantly increases lymphocyte migration | VCAM-1 activation of PKCα (phosphorylation of PKCα-Thr638) (PKCα): enhancement | Effect on arthritis (arthritis): exacerbatory effect | Retention in tissues relative to α-tocopherol [7]: 10%
